Results reported in PubChem BioAssay (NCI).
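Dose response: 5 concentrations. Exposure: 48 h. Format: 96-well plates. Endpoint: linear interpolation; highest concentration if not reached. GI50 is the concentration that inhibits growth by half. The concentration for full growth arrest is given as TGI.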

Key:
Assay in all cases: NCI tumour cell line growth inhibition, 48 h
[1] = tested on: NCI-H522 lung
[2] = tested on: HOP-62 NSCLC
[3] = tested on: SN12C renal
[4] = tested on: SK-MEL-5 melanoma
[5] = tested on: KM12 colon
[6] = tested on: HL-60(TB) leukemia
[7] = tested on: SW-620 colon
[8] = tested on: M14 melanoma
[9] = tested on: SNB-75 CNS
[10] = tested on: EKVX NSCLC

SMILES: Cc1ccc(N)cc1[As]=[As]c1cc(N)ccc1C (configuration not stated)
- GI50 [1]: 0.122 µM
- TGI [1]: 0.268 µM
- GI50 [2]: 1.72 µM
- TGI [2]: 3.19 µM
- GI50 [3]: 1.4 µM
- TGI [3]: 2.88 µM
- GI50 [4]: 1.51 µM
- TGI [4]: 2.91 µM
- GI50 [5]: 1.95 µM
- TGI [5]: 3.81 µM
- GI50 [6]: 2.01 µM
- TGI [6]: 5.8 µM
- GI50 [7]: 1.27 µM
- TGI [7]: 3.2 µM
- GI50 [8]: 1.71 µM
- TGI [8]: 3.4 µM
- GI50 [9]: 1.27 µM
- TGI [9]: 2.59 µM

SMILES: COc1ccc(OC)c(Nc2nc3nonc3nc2Nc2cccc(Br)c2)c1
- GI50 [1]: 0.254 µM
- TGI [1]: 0.775 µM
- GI50 [2]: 1.62 µM
- TGI [2]: 7.43 µM
- GI50 [3]: 0.405 µM
- TGI [3]: 7.07 µM
- GI50 [4]: 0.297 µM
- TGI [4]: 1.57 µM
- GI50 [5]: 1.24 µM
- TGI [5]: > 100 µM
- GI50 [6]: 0.702 µM
- TGI [6]: 5.9 µM
- GI50 [7]: 0.86 µM
- TGI [7]: > 100 µM
- GI50 [8]: 1.5 µM
- TGI [8]: 44.7 µM
- GI50 [9]: 1.25 µM
- TGI [9]: 8.12 µM

SMILES: CC1OC(n2cc(C(F)(F)F)c(=O)[nH]c2=O)C=CC1=O (configuration not stated)
- TGI [1]: 32.5 µM
- TGI [2]: 52.3 µM
- TGI [3]: 57.8 µM
- TGI [5]: 38.1 µM
- TGI [6]: 41.2 µM
- TGI [7]: 35.9 µM
- TGI [8]: 59.8 µM
- TGI [9]: 32.8 µM

SMILES: O=C(NC1CC1)c1c(O)[nH]c(=S)[nH]c1=O
- TGI [1]: > 100 µM
- TGI [2]: > 100 µM
- TGI [3]: > 100 µM
- TGI [4]: > 100 µM
- TGI [5]: > 100 µM
- TGI [6]: > 100 µM
- TGI [7]: > 100 µM
- TGI [8]: > 100 µM
- TGI [9]: > 100 µM

SMILES: Cc1ccc(S(=O)(=O)OCOS(=O)(=O)c2ccc(C)cc2)cc1
- TGI [10]: > 100 µM
- TGI [1]: > 100 µM
- TGI [2]: > 100 µM
- TGI [3]: > 100 µM
- TGI [4]: > 100 µM
- TGI [5]: > 100 µM
- TGI [6]: > 100 µM
- TGI [7]: > 100 µM
- TGI [8]: > 100 µM

SMILES: O=c1nc2sc3ccccc3c(=O)n2[nH]1
- TGI [10]: > 100 µM
- TGI [2]: > 100 µM
- TGI [3]: > 100 µM
- TGI [4]: > 100 µM
- TGI [5]: > 100 µM
- TGI [6]: > 100 µM
- TGI [7]: > 100 µM
- TGI [8]: > 100 µM
- TGI [9]: > 100 µM

SMILES: CC1(C)C(=O)OC(n2cc(F)c(=O)[nH]c2=O)C1=O (configuration not stated)
- TGI [10]: > 100 µM
- TGI [1]: > 100 µM
- TGI [2]: > 100 µM
- TGI [3]: > 100 µM
- TGI [5]: > 100 µM
- TGI [6]: > 100 µM
- TGI [7]: > 100 µM
- TGI [8]: > 100 µM
- TGI [9]: > 100 µM

SMILES: COC(=O)[C@H](Cc1cn(C)cn1)NC(=O)[C@H](CC(=O)OCc1ccccc1)NC(=O)Nc1cc(C(F)(F)F)cc(C(F)(F)F)c1
- GI50 [1]: 8.53 µM
- TGI [1]: 21.4 µM
- GI50 [2]: 5.03 µM
- TGI [2]: 16.9 µM
- GI50 [3]: 4.79 µM
- TGI [3]: 17.3 µM
- GI50 [4]: 12.2 µM
- TGI [4]: 24.6 µM
- GI50 [5]: 14 µM
- TGI [5]: 30.7 µM
- GI50 [6]: 12.3 µM
- TGI [6]: 27.1 µM
- GI50 [7]: 6.66 µM
- TGI [7]: 21.1 µM
- GI50 [8]: 3.38 µM
- TGI [8]: 11.3 µM
- GI50 [9]: 11.8 µM
- TGI [9]: 24.1 µM

SMILES: O=S1(=O)c2ccccc2N(c2ccccc2)c2nnnn21
- TGI [10]: > 100 µM
- TGI [1]: 38.9 µM
- TGI [2]: 45.9 µM
- TGI [3]: 39.1 µM
- TGI [4]: > 100 µM
- TGI [5]: > 100 µM
- TGI [6]: 33.6 µM
- TGI [7]: 53.6 µM
- TGI [8]: 54.5 µM
